Measurements taken from paper PMC3460867, “MmPPOX Inhibits Mycobacterium tuberculosis Lipolytic Enzymes Belonging to the Hormone-Sensitive Lipase Family and Alters Mycobacterial Growth” (PLoS ONE, 2012).
Values after ≈ are worked out from the molar mass of the structure shown. Like-named read-outs stand apart in the source and are kept apart here.

Key:
LipY = biological target: T1, LipY (Mycobacterium tuberculosis, UniProt I6Y2J4); assay: biochemical; type: biochemical, M. tuberculosis; conditions: for Ki: Apparent K i
T1 sequence (I6Y2J4 1-437): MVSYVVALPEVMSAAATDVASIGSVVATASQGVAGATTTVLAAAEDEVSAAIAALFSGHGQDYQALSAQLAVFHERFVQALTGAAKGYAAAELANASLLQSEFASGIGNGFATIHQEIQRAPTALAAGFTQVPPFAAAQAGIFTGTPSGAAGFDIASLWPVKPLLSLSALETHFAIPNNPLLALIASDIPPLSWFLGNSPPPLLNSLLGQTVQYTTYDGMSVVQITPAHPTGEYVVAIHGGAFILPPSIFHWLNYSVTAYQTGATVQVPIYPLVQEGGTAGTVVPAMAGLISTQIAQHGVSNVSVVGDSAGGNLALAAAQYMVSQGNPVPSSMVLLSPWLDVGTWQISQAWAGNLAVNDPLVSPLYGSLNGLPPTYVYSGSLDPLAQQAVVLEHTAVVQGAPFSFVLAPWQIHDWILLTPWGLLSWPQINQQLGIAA

LipU = LipU (Mycobacterium tuberculosis, UniProt O53424); assay: biochemical; type: biochemical; conditions: for x I50: inhibitor molar excess leading to 50% residual activity after 10 min incubation
Sequence of LipU (O53424 whole entry): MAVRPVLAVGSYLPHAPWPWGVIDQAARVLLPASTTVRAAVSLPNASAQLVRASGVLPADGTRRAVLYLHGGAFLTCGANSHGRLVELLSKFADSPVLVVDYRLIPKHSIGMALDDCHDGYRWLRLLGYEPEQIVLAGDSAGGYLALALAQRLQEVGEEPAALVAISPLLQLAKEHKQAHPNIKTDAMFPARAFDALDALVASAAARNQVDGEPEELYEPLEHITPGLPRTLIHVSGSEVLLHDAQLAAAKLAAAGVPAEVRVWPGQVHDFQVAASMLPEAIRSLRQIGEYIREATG

LipR = type: biochemical; conditions: pNPC4
LipN = assay: Inhibition of recombinant LipN, pre-incubation method, residual activity on pNPC4; type: biochemical, M. tuberculosis; conditions: for Residual activity (%) 10 min / Residual activity (%) 30 min: pNPC4
LipF = type: biochemical; conditions: for Residual activity (%) 10 min / Residual activity (%) 30 min: pNPC4
LipI = LipI (Mycobacterium tuberculosis, UniProt P71668); assay: biochemical; type: biochemical; conditions: for x I50: inhibitor molar excess leading to 50% residual activity after 10 min incubation; for Residual activity (%) 10 min: 10 min incubation; for Residual activity (%) 30 min: 30 min incubation
Sequence of LipI (P71668 whole entry): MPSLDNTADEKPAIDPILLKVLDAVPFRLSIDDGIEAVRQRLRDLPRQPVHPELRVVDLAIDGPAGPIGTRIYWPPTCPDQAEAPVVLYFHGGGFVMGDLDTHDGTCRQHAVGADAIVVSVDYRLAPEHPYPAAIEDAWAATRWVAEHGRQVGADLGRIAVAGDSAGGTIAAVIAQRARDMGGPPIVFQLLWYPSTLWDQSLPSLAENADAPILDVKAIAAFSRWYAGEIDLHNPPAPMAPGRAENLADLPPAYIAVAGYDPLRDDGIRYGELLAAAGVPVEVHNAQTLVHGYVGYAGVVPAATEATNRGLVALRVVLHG

LipC = LipC (Mycobacterium tuberculosis, UniProt P96402); assay: biochemical; type: biochemical; conditions: for x I50: inhibitor molar excess leading to 50% residual activity after 10 min incubation; for Residual activity (%) 10 min: 10 min incubation; for Residual activity (%) 30 min: 30 min incubation
Sequence of LipC (P96402 whole entry): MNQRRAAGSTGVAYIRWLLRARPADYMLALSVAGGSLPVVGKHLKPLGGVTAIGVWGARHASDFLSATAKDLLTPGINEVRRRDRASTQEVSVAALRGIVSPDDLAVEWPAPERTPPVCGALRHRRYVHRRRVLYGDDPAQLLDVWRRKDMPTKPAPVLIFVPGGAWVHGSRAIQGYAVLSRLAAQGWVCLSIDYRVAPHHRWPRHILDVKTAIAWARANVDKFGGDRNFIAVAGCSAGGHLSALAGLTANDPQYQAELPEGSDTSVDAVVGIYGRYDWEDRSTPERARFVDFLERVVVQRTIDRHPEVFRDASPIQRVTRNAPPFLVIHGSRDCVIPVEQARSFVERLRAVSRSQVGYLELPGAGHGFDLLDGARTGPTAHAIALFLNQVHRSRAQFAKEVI

LipW = type: biochemical; conditions: pNPC4
[1] = system: M. bovis BCG strain Pasteur 1173P2; assay: microbe, parasite or virus in culture; type: cell-based; conditions: Mycobacterium tuberculosis variant bovis BCG
Cut6 = Cut6 (Mycobacterium tuberculosis, UniProt O53581); assay: biochemical; type: biochemical; conditions: for x I50: inhibitor molar excess leading to 50% residual activity after 10 min incubation
Sequence of Cut6 (O53581 44-336): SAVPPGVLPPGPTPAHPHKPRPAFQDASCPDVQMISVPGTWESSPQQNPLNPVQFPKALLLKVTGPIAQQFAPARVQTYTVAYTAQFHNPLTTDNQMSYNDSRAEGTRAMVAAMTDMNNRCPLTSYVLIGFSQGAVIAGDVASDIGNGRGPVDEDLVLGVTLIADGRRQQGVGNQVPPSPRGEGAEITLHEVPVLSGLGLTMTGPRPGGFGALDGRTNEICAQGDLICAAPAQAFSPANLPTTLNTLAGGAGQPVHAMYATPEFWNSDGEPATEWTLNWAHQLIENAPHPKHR

Lip-HSL enzymes = assay: Inhibition of all Lip-HSL enzymes tested, pre-incubation method, residual activity on pNPC4 (statements for the family); type: biochemical
[2] = system: M. tuberculosis strain mc^27000; assay: microbe, parasite or virus in culture; type: cell-based; conditions: Mycobacterium tuberculosis
LipH = type: biochemical; conditions: pNPC4
[3] = near stoichiometric proportions of inhibitor (x I<2)
[4] = LipI, near stoichiometric proportions of inhibitor (x I<2)
[5] = LipC, near stoichiometric proportions of inhibitor (x I<2)

SMILES: COc1nn(-c2cccc(Oc3ccccc3)c2)c(=O)o1 [MmPPOX, 5-methoxy-N-3-(meta-phenoxyphenyl)-1,3,4-oxadiazol-2(3H)-one]
- Residual activity (%) 10 min (LipY): 5%
- Residual activity (%) 30 min (LipY): 5%
- x I50 ratio (LipY): 0.4
- Ki (LipY): 7.7 µM
- Ki (LipU; Apparent K i, pNPC4): 5.1 µM
- x I50 ratio (LipU; calculated as x I50 (THL)/x I50 (MmPPOX)): >333
- x I50 (LipU; pNPC4): 1.5
- Residual activity (%) 10 min (LipU; x I = 20, 10 min incubation, pNPC4): 10%
- Residual activity (%) 30 min (LipU; x I = 20, 30 min incubation, pNPC4): 17%
- Residual activity (%) 10 min (LipR; x I = 20, 10 min incubation): 7%
- Residual activity (%) 30 min (LipR; x I = 20, 30 min incubation): 15%
- Half inactivation time (t1/2) (LipN; [3]): < 1 min
- Remaining activities (LipN; [3]): < 10%
- Residual activity (%) 10 min (LipN; x I = 2, 10 min incubation): 6%
- Residual activity (%) 30 min (LipN; x I = 2, 30 min incubation): 6%
- Residual activity (%) 10 min (LipN; x I = 5, 10 min incubation): 0%
- Residual activity (%) 30 min (LipN; x I = 5, 30 min incubation): 0%
- Half inactivation time (t1/2) (LipF; [3]): < 1 min
- Remaining activities (LipF; [3]): < 10%
- Residual activity (%) 10 min (LipF; x I = 1, 10 min incubation): 7%
- Residual activity (%) 30 min (LipF; x I = 1, 30 min incubation): 11%
- Residual activity (%) 10 min (LipF; x I = 2, 10 min incubation): 0%
- Residual activity (%) 30 min (LipF; x I = 2, 30 min incubation): 0%
- Ki (LipI): 0.1 µM
- x I50 ratio (LipI; LipI, calculated as x I50 (THL)/x I50 (MmPPOX)): 131.8
- x I50 (LipI; LipI, pNPC4): 0.5
- Half inactivation time (t1/2) (LipI; [4]): < 1 min
- Remaining activities (LipI; [4]): < 10%
- Residual activity (%) 10 min (LipI; LipI, x I = 1, pNPC4): 7%
- Residual activity (%) 30 min (LipI; LipI, x I = 1, pNPC4): 6%
- Residual activity (%) 10 min (LipI; LipI, x I = 2, pNPC4): 0%
- Residual activity (%) 30 min (LipI; LipI, x I = 2, pNPC4): 0%
- Ki (LipC): 1 µM
- x I50 ratio (LipC; LipC, calculated as x I50 (THL)/x I50 (MmPPOX)): >10^3
- x I50 (LipC; LipC, pNPC4): 0.5
- Half inactivation time (t1/2) (LipC; [5]): < 1 min
- Remaining activities (LipC; [5]): < 10%
- Residual activity (%) 10 min (LipC; LipC, x I = 2, pNPC4): 7%
- Residual activity (%) 30 min (LipC; LipC, x I = 2, pNPC4): 5%
- Residual activity (%) 10 min (LipC; LipC, x I = 5, pNPC4): 0%
- Residual activity (%) 30 min (LipC; LipC, x I = 5, pNPC4): 0%
- Residual activity (%) 10 min (LipW; x I = 20, 10 min incubation): 6%
- Residual activity (%) 30 min (LipW; x I = 20, 30 min incubation): 13%
- MIC [1]: 10 to 20 µg/mL (≈ 35.2 to 70.4 µM)
- Ki (Cut6; Apparent K i, Cut6, pNPC4): > 1000 µM
- Ki (Cut6; Apparent K i, Cut6, pNPC4, value of the text): 6400 µM
- x I50 ratio (Cut6; Cut6, calculated as x I50 (THL)/x I50 (MmPPOX)): <0.1
- x I50 (Cut6; Cut6, pNPC4): 227.9
- Activity in the presence of inhibitor (Cut6; Cut6, x I = 20): retained full activity
- Residual activity (%) 10 min (Cut6; Cut6, x I = 20, 10 min incubation, pNPC4): 100%
- Residual activity (%) 30 min (Cut6; Cut6, x I = 20, 30 min incubation, pNPC4): 100%
- Apparent K i for Cut6 relative to those of Lip-HSL proteins (times higher) (Cut6; Cut6 vs Lip-HSL proteins): about 1000
- Activity restoration: increase of residual activity after 30 min as compared to 10 min (Lip-HSL enzymes; LipF, LipR, LipU and LipW): 4–8%
- Half inactivation time (t1/2) (Lip-HSL enzymes; all Lip-HSL enzymes tested, x I = 20): < 1 min
- Remaining activities (Lip-HSL enzymes; all Lip-HSL enzymes tested, x I = 20, 10 min incubation, pNPC4): less than 15%
- MIC [2]: ~25 µg/mL (≈ 87.9 µM)
- Residual activity (%) 10 min (LipH; x I = 5, 10 min incubation): 9%
- Residual activity (%) 30 min (LipH; x I = 5, 30 min incubation): 9%
- Residual activity (%) 10 min (LipH; x I = 10, 10 min incubation): 0%
- Residual activity (%) 30 min (LipH; x I = 10, 30 min incubation): 0%

SMILES: CCCCCCCCCCC[C@@H](C[C@@H]1OC(=O)[C@H]1CCCCCC)OC(=O)[C@H](CC(C)C)NC=O [THL, Tetrahydrolipstatin]
- Ki (LipY): 3.2 µM
- x I50 (LipU; pNPC4): >500
- Ki (LipU; pNPC4, read-out: Apparent K i): > 1000 µM
- x I50 (LipI; LipI, pNPC4): 65.9
- Ki (LipI; LipI, pNPC4, read-out: Apparent K i): 13.1 µM
- x I50 (LipC; LipC, pNPC4): >500
- Ki (LipC; LipC, pNPC4, read-out: Apparent K i): > 1000 µM
- MIC [1]: 7.5 µg/mL (≈ 15.1 µM)
- x I50 (Cut6; Cut6, pNPC4): 9.7
- Ki (Cut6; Cut6, pNPC4, read-out: Apparent K i): 142 µM
- MIC [2]: 20 µg/mL (≈ 40.3 µM)
